These results are taken from patent publication US20160058739A1, “USE OF PIDOTIMOD TO TREAT INFLAMMATORY BOWEL DISEASE” (POLICHEM SA, priority 2013, published 2016).

Each structure is given as a SMILES string. Non-standard residues stand in square brackets, D forms with d. Residues, ends and D or L forms follow the SMILES beside them. pGlu = O=C1CC[C@@H](C(=O)O)N1; Thz = O=C(O)[C@@H]1CSCN1

The assay has as its system patients with chronic diarrhoea caused by Crohn's disease or ulcerative colitis. The assay can be described thus: open-label pilot trial in patients with chronic diarrhoea caused by Crohn's disease or ulcerative colitis. It is filed as in vivo. From the text: Three patients with chronic diarrhoea caused by Crohn's disease without resection, aged 44 to 63 years (2 female) and three patients with chronic diarrhoea caused by ulcerative colitis, aged 50 to 65 years (1 female) were enrolled in an open-label pilot trial to receive twice a day the composition as per the Example 4 for 12 weeks.

Setting [1] is: composition as per Example 4 twice a day for 12 weeks, 3 Crohn's disease and 3 ulcerative colitis patients.

With `O=C1CC[C@@H](C(=O)N2CSC[C@H]2C(=O)O)N1` [pidotimod, (4R)-3-(5-oxo-L-prolyl)-1,3-thiazolidine-4-carboxylic acid] ([pGlu]-[Thz]-OH), the “role in inflammatory bowel disease (IBD) in controlling signs and symptoms such as chronic diarrhea” value (administered twice daily for 12 weeks, study conclusion) is listed as “beneficial role”. The frequency of stools result (composition as per Example 4 (oral solution, 5.10% pidotimod) twice a day for 12 weeks, 3 Crohn's disease and 3 ulcerative colitis patients) is “significantly decreased”. For the same molecule, under setting [1], the bowel transit time entry is listed as “prolonged”, the stool consistency entry is listed as “became more solid” and the weight of stools entry is recorded as “significantly decreased”.
